t1/2, IC50 and CLint scaled data for 19 compounds are collected here from ChEMBL document CHEMBL5029155, “Design, Synthesis, and Biological Evaluation of Stable Colchicine-Binding Site Tubulin Inhibitors 6-Aryl-2-benzoyl-pyridines as Potential Anticancer Agents” (J Med Chem, 2021).

Series [1] in a line: Metabolic stability in mouse liver microsomes assessed as half life in presence of NADPH regenerating system by UPLC-MS analysis. The class given is ADME, Microsome. The settings on record: microsomes.
Series [2] concerns A-375. Kind of series: Antiproliferative activity against human A-375 cells assessed as cell growth inhibition incubated for 72 hrs by MTS assay. It counts as functional, cell-based. Conditions: A-375, 72 h.
Series [3] concerns MDA-MB-231. The series is described as follows: Antiproliferative activity against human MDA-MB-231 cells assessed as cell growth inhibition incubated for 72 hrs by MTS assay. It counts as functional, cell-based. The settings on record: MDA-MB-231, 72 h. On the technique in general: Tetrazolium dyes change colour on reduction, which living cells bring about.
Series [4] in a line: Metabolic stability in mouse liver microsomes assessed as intrinsic clearance in presence of NADPH regenerating system by UPLC-MS analysis. The class given is ADME, Microsome. Conditions: read-out: CLH. Background: Liver microsomes are vesicles of endoplasmic reticulum, rich in cytochrome P450 enzymes.
Series [5] in a line: Metabolic stability in human liver microsomes assessed as intrinsic clearance in presence of NADPH regenerating system by UPLC-MS analysis. The class given is ADME, Microsome. The settings on record: read-out: CLH.
The subject of series [6] is M14. The series is described as follows: Antiproliferative activity against human M14 cells assessed as cell growth inhibition incubated for 72 hrs by MTS assay. It counts as functional, cell-based. The settings on record: M14, 72 h.
The test system of series [7] is RPMI-7951. The series is described as follows: Antiproliferative activity against human RPMI-7951 cells assessed as cell growth inhibition incubated for 72 hrs by MTS assay. It counts as functional, cell-based. The settings on record: RPMI-7951, 72 h.
For series [8], the system named is MDA-MB-453. Kind of series: Antiproliferative activity against human MDA-MB-453 cells assessed as cell growth inhibition incubated for 72 hrs by MTS assay. The class given is functional, cell-based. Conditions: MDA-MB-453, 72 h.
Series [9] has as its system SK-BR-3. Kind of series: Antiproliferative activity against human SK-BR-3 cells assessed as cell growth inhibition incubated for 72 hrs by MTS assay. It counts as functional, cell-based. Conditions: SK-BR-3, 72 h.
A short description of series [10]: Metabolic stability in human liver microsomes assessed as half life in presence of NADPH regenerating system by UPLC-MS analysis. The class given is ADME, Microsome. Conditions: microsomes.

The term IC50 denotes the concentration at which inhibition is half-maximal. As to `COc1cc(C(=O)c2nc(-c3ccc(C(F)F)cc3)ccc2F)cc(OC)c1OC`, the results for the t1/2 in [1] and in series [10] were 90 min and 33 min, respectively. The concentration for half-maximal inhibition (IC50) in [2] is 2.6 nM; in series [3] it was 4.3 nM; in series [6], 3.2 nM; in series [7], 2.1 nM; in [8] it was 4.2 nM; in [9], 2.4 nM. Further, the CLint scaled in series [4] was 38.2 mL/min/kg; in [5], 38.1 mL/min/kg.

Take `COc1cc(C(=O)c2cncc(-c3ccc(C)c(O)c3)n2)cc(OC)c1OC`: the t1/2 in series [1] is given as 119.4 min; in series [10], 46.8 min. For the same compound, the IC50 in series [2] was 5.9 nM; in series [3] it was 8 nM; in series [6], 5.2 nM; in [7], 5.2 nM; in series [8] it was 4 nM; in [9] it was 26.7 nM. For the same compound, the CLint scaled was 28.7 mL/min/kg in [4] and 26.6 mL/min/kg in series [5].

With `COc1cc(C(=O)c2ccnc(-c3ccc(C)c(O)c3)n2)cc(OC)c1OC`, the t1/2 in series [1] came to 78.6 min; in series [10], 9 min. The 50% inhibitory concentration (IC50) in series [2] was found to be 6.8 nM; in series [3], 15.1 nM; in [6] it was 5.4 nM; in [7], 7.2 nM; in series [8] it was 2.8 nM; in series [9] it was 12 nM. In addition, the CLint scaled was found to be 43.8 mL/min/kg in [4] and 142 mL/min/kg in series [5].

For `COc1cc(C(=O)c2cccc(-c3ccc(C)cc3)n2)cc2c1OCCO2`, the t1/2 in [1] was found to be 1.8 min; in series [10] it was 7.2 min. Further, the half-inhibitory concentration (IC50) in series [2] was 3.6 nM; in [3], 5.3 nM; in [6] it was 4.5 nM; in series [7] it was 3.1 nM; in series [8], 3.2 nM; in series [9], 3.2 nM. The CLint scaled in [4] stood at 1900 mL/min/kg; in series [5], 172 mL/min/kg.

As to `COc1cc(C(=O)c2cccc(-c3ccc(C)c(NC(C)=O)c3)n2)cc(OC)c1OC`, the IC50 in series [2] is 28.8 nM; in series [3] it was 33.4 nM; in series [6], 12.6 nM; in series [7] it was 21.2 nM; in series [8] it was 19.3 nM; in [9] it was 15.2 nM.

Regarding `COCCOc1c(OC)cc(C(=O)c2cccc(-c3ccc(C)cc3)n2)cc1OC`, the results for the t1/2 in series [1] and in series [10] were 8.4 min and 9 min, respectively. Also, the IC50 is 3.7 nM in series [2]; 6.6 nM in series [3]; 2.4 nM in [6]; 5 nM in series [7]; 2.1 nM in [8]; 4.2 nM in [9]. The results for the CLint scaled in [4] and in series [5] were 397 mL/min/kg and 136 mL/min/kg, respectively.

With `COc1cc(C(=O)c2nc(-c3ccc(C)cc3)ccc2F)cc(OC)c1OC`, the t1/2 in series [1] is given as 12.6 min; in [10], 9.6 min. For the same compound, the 50% inhibitory concentration (IC50) in series [2] is 3.7 nM; in series [3], 2.3 nM; in series [6], 2.6 nM; in [7], 3.4 nM; in series [8], 2.5 nM; in [9], 1.9 nM. Moreover, the CLint scaled amounted to 273 mL/min/kg in series [4] and 133 mL/min/kg in series [5].

As to `COc1cc(C(=O)c2cc(C)cc(-c3ccc(C)cc3)n2)cc(OC)c1OC`, the t1/2 in [1] turned out to be 4.2 min; in [10], 43.2 min. The half-inhibitory concentration (IC50) in [2] came to 4.3 nM; in series [3], 16 nM; in [6] it was 4.4 nM; in series [7], 6.4 nM; in series [8], 9.7 nM; in [9], 5.5 nM. In addition, the CLint scaled was found to be 824 mL/min/kg in series [4] and 28.8 mL/min/kg in [5].

For the compound `COc1cc(C(=O)c2ccnc(-c3c[nH]c4ccccc34)n2)cc(OC)c1OC`, the IC50 in series [2] amounted to 36.1 nM; in series [3] it was 31.6 nM; in series [6] it was 29.1 nM; in [7] it was 29.7 nM; in series [8], 14.2 nM; in series [9] it was 17.1 nM.

For the compound `COc1cc(-c2n[nH]c3ccc(-c4ccc(C)c(O)c4)nc23)cc(OC)c1OC`, the t1/2 was found to be 167.4 min in series [1] and 205.2 min in series [10]. Further, the IC50 in series [2] is 21.1 nM; in [3], 22.3 nM; in [6], 18.5 nM; in [7], 22.9 nM; in series [8], 54.9 nM; in series [9], 65.6 nM. Besides, the CLint scaled was 20.5 mL/min/kg in series [4] and 6.1 mL/min/kg in [5].

As to `COc1cc(C(=O)c2cc(F)cc(-c3ccc(C(F)F)cc3)c2)cc(OC)c1OC`, the half-maximal inhibitory concentration (IC50) in series [2] worked out at 80.9 nM; in series [3], 45 nM; in [6], 56.3 nM; in series [7] it was 40.8 nM; in [8] it was 89.7 nM; in series [9], 52.3 nM.

With `COc1cc(C(=O)c2cncc(-c3c[nH]c4ccccc34)n2)cc(OC)c1OC`, the half-maximal inhibitory concentration (IC50) came to 16.7 nM in series [2]; 12.4 nM in series [3]; 19.2 nM in series [6]; 14.4 nM in [7]; 13.2 nM in series [8]; 35 nM in [9].

`COc1cc(C(=O)c2nc(-c3ccc(C)c(O)c3)[nH]c2C)cc(OC)c1OC`: the concentration for half-maximal inhibition (IC50) in series [2] was 52.3 nM; in series [3], 112 nM; in [6], 46.6 nM; in series [7], 56 nM; in series [8], 28.1 nM; in series [9] it was 25.6 nM.

Regarding `COc1cc(C(=O)c2cc(C)cc(-c3ccc(C)c(N)c3)n2)cc(OC)c1OC`, the half-inhibitory concentration (IC50) in series [2] amounted to 8.8 nM; in series [3] it was 5.5 nM; in series [6], 5.9 nM; in series [7], 6.3 nM; in series [8], 5.5 nM; in [9] it was 3.5 nM.

`COc1cc(C(=O)c2cncc(-c3ccc(C)cc3)n2)cc(OC)c1OC`: the t1/2 in [1] was 42.6 min; in series [10] it was 20.4 min. The IC50 in [2] was 2.5 nM; in series [3], 4.8 nM; in series [6] it was 1.7 nM; in series [7] it was 2.2 nM; in series [8] it was 6.7 nM; in series [9] it was 7.1 nM. In addition, in series [4], the CLint scaled was determined as 65.8 mL/min/kg.

For `COc1cc(C(=O)c2cncc(-c3cccc4[nH]ncc34)n2)cc(OC)c1OC`, the IC50 worked out at 20.8 nM in series [2]; 38 nM in series [3]; 21.9 nM in [6]; 23.8 nM in series [7]; 51.5 nM in series [8]; 46.1 nM in [9].

For the compound `COc1cc(C(=O)c2cccc(-c3ccc(N(C)C)cc3)n2)cc(OC)c1OC`, the IC50 in series [2] turned out to be 53.8 nM; in series [3], 42.7 nM; in series [6], 63.5 nM; in series [7], 44 nM; in series [8], 33.7 nM; in [9], 54.5 nM.

Regarding `COc1cc(-n2ccc3ccc(-c4ccc(C)cc4)nc32)cc(OC)c1OC`, the half-maximal inhibitory concentration (IC50) was 174 nM in [2]; 515 nM in series [3]; 76.5 nM in series [6]; 205 nM in series [7]; 139 nM in series [8]; 82.9 nM in series [9].

Take `COc1cc(C(=O)c2nc(-c3ccc(C)c(O)c3)[nH]c2Br)cc(OC)c1OC`: the half-maximal inhibitory concentration (IC50) was found to be 85 nM in series [2]; 70.9 nM in series [3]; 76.3 nM in series [6]; 133 nM in [7]; 68.1 nM in series [8]; 119 nM in series [9].
